The values below are quoted from earlier work in PMC12305721 (International Journal of Pharmaceutics: X, 2025).

On the set-up of this data set: method as in Song et al., 2016. Particulars: reduced from −43.19 °C; ref Song et al., 2016.

On to `CCCCCCCCCCCCN1CCCCCC1=O` [Azone], for which the “Tg of PSAs after incorporation of Azone” value is −52.92 °C.
